The results in this text go back to PMC5514153, “Targeting PTPRZ inhibits stem cell-like properties and tumorigenicity in glioblastoma cells” (Scientific Reports, 2017).

The target in the test is T1, PTPRZ1 V1911F (Homo sapiens, UniProt P23471, V1911F).
T1 construct: Point mutants of the PTPRZ1-ICR, PTPRG-ICR, and PTPN1 catalytic domain were generated; GST (N); made in house
In words: Inhibitor sensitivity of point mutant PTPRZ1 V1911F. Format: biochemical. The conditions noted are these: 10 µM, vs wild-type PTPRZ1. The source says: Figure 5 Structural basis for PTPRZ inhibition of NAZ2329. (A) An enlarged view of the X-ray structure of human PTPRZ1-D1 complexed with NAZ2329 (PDB ID: 5H08) (left), X-ray structure of the apo (open) form of PTPRZ1-D1 (PDB ID: 5AWX, ref. [6], middle) and a computer-modeled structure of the closed form of PTPRZ1-D1 complexed with a competitive inhibitor, SCB4380 (ref. [6], right), are shown. PTPRZ1-D1 is shown as a gray surface representation, in which Cys1933 at the active site and Val-1911 at the bottom of the allosteric pocket are indicated in red and yellow, respectively. Inhibitors are colored according to the atomic species in a stick figure representation as follows: oxygen (red), nitrogen (blue), sulfur (yellow), and carbon (green). The bottom figures show the conformation of the WPD loop (orange) as cartoon representations, in which Asp1901 and Cys1933 are indicated by orange and red spheres, respectively. Side chains of Arg1939 at the active site, Met1902 in the WPD loop, and Val-1911 at the bottom of the allosteric binding area are also shown in the stick representation. (B) LigPlot representation of the NAZ2329 interaction with PTPRZ1-D1. The predicted hydrogen bonds (broken black lines) and residues (red spoked arcs) involved in the hydrophobic interaction are shown. […]

T1 sequence (P23471 1663-2315 V1911F limits assumed): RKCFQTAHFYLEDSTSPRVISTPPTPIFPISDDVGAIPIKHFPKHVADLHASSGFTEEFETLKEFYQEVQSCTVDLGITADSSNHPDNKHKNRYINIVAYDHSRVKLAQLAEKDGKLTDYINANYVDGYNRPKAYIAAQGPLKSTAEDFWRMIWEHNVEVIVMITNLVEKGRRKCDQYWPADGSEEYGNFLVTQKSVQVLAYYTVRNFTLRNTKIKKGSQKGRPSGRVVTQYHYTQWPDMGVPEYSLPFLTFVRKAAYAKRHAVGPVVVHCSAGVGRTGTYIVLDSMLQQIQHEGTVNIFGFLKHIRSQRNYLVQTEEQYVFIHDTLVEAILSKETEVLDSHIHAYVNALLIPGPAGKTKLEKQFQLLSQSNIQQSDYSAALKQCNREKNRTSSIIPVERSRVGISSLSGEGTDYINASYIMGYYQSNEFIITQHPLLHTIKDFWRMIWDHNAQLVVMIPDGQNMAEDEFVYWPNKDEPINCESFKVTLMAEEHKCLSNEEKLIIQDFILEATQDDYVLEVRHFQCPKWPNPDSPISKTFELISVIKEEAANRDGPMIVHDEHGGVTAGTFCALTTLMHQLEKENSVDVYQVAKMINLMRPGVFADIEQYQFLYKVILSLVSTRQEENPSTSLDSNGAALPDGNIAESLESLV

With `CCOc1ccc(C(F)(F)F)cc1CSc1ccsc1C(=O)NS(=O)(=O)c1ccccc1` [NAZ2329], the “effect of V1911F substitution on sensitivity to inhibitor” value is given as “markedly reduced the sensitivity”.
